# In US7574340B2 (priority 2003, dated 2009):
# Assays:
# BoNT/A LC [1] = biological target: T1, BoNT/A LC (Clostridium botulinum, UniProt P0DPI0); assay: biochemical; type: biochemical
# anthrax lethal factor = anthrax lethal factor (Bacillus anthracis, UniProt P15917); type: biochemical
# [2] = biological target: BoNT serotype B light chain (BoNT/B LC) (Clostridium botulinum, UniProt P10844); type: biochemical
# BoNT/A LC [3] = biological target: T1, BoNT/A LC; details: cited from earlier work
# BoNT/A holotoxin = BoNT/A holotoxin (Clostridium botulinum, UniProt P0DPI0); details: 3.3 μM; cited from earlier work
# Sequence of BoNT/A holotoxin (P0DPI0 2-448 limits assumed): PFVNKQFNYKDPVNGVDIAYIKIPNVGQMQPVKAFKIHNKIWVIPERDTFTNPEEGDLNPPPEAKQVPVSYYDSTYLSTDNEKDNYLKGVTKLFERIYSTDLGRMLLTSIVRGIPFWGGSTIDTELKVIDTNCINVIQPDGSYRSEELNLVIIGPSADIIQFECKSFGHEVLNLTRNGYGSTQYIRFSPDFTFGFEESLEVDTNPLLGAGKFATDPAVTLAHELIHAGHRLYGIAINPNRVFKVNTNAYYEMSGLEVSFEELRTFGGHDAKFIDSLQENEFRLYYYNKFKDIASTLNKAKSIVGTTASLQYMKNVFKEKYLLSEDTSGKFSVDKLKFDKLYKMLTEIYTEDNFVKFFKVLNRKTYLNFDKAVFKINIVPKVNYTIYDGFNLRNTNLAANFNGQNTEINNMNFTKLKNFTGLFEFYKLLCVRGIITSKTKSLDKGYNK
# Sequence of BoNT/A holotoxin (P0DPI0 449-1296 limits assumed): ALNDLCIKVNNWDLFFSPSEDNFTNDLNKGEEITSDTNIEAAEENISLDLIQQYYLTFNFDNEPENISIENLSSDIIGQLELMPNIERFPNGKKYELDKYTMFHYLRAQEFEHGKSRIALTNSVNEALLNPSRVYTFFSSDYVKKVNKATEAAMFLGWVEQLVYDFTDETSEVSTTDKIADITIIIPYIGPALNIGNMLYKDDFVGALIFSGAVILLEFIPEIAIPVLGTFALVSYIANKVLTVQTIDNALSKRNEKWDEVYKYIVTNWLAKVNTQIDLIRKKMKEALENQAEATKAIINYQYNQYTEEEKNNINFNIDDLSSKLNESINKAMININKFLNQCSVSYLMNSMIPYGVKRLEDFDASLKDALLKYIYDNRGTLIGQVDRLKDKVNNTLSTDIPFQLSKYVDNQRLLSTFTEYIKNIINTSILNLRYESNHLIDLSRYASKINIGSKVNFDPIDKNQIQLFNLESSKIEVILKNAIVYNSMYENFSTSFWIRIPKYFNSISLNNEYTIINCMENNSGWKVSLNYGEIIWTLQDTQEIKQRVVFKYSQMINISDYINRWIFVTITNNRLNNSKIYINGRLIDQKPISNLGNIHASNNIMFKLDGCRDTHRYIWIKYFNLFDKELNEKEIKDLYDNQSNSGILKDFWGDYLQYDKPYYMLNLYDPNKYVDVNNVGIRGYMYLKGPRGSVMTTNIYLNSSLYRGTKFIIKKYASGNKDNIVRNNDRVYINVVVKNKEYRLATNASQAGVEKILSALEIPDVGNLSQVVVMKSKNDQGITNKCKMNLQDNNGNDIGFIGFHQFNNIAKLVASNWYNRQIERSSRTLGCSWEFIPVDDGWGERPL
# T1 sequence (P0DPI0 2-448 limits assumed): as the sequence (P0DPI0 2-448 limits assumed) above
# Sequence of BoNT serotype B light chain (BoNT/B LC) (P10844 2-441 limits assumed): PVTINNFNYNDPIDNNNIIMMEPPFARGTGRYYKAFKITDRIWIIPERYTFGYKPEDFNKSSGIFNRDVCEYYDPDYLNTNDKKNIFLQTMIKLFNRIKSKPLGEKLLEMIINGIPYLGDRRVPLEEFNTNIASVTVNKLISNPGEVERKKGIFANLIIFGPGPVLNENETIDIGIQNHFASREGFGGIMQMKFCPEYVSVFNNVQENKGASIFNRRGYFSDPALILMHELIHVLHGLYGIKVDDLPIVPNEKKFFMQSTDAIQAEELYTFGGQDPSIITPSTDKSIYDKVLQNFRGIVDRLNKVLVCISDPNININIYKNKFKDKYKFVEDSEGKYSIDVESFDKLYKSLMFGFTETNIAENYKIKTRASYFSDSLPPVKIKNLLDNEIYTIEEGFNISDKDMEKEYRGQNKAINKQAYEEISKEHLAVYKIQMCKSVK
# Sequence of anthrax lethal factor (P15917 34-809 limits assumed): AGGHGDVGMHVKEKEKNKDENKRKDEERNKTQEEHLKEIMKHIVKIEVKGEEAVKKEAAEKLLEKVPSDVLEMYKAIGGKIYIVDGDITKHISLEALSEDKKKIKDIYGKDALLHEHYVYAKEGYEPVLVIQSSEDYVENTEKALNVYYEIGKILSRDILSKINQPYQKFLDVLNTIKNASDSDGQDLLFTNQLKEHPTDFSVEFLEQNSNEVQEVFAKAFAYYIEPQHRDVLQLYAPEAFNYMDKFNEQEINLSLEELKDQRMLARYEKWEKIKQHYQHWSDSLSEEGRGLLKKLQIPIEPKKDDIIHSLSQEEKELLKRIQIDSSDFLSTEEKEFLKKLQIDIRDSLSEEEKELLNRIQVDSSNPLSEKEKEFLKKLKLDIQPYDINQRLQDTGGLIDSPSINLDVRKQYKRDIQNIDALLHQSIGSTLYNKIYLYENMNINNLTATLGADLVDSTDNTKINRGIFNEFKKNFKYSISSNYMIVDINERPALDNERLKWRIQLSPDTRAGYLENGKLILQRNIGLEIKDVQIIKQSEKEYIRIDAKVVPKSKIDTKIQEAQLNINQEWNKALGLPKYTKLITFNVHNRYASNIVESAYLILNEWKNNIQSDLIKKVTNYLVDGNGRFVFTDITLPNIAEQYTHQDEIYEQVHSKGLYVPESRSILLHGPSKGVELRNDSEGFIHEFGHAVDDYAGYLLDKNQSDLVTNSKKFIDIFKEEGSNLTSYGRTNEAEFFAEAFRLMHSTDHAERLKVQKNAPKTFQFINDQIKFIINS
molecule,measurement,setting,value
CCN(CC)Cc1cc(Nc2ccnc3cc(Cl)ccc23)ccc1O [Amodiaquine],% Inhibition,BoNT/A LC [1],20%
same,inhibition at 20 µM,BoNT/A LC [1],30%
"COc1cc(C)cc2c(-c3c(O)cc(O)c4c3C[C@@H](C)N[C@@H]4C)cc(-c3cc(-c4c(O)cc(O)c5c4C[C@@H](C)N[C@@H]5C)c4cc(C)cc(OC)c4c3O)c(O)c12 [NSC 661755, Michellamine B]",effect of added zinc on inhibition of BoNT/A LC,BoNT/A LC [1],not affected by added zinc
same,inhibition at 20 µM,BoNT/A LC [1],62%
O=[N+]([O-])c1cc(Cc2cc([N+](=O)[O-])c3cccnc3c2O)c(O)c2ccccc12 [NSC 130796],inhibition at 20 µM,BoNT/A LC [1],48%
same,inhibition of anthrax lethal factor (in words),anthrax lethal factor,inhibit
same,inhibition of BoNT/B LC protease activity (in words),[2],inhibit
Quinine,% Inhibition,BoNT/A LC [1],9 3%
C[C@H](CS)C(=O)N1CCC[C@H]1C(=O)O [captopril],BoNT/A LC inhibition (in words),BoNT/A LC [3],inhibited by mM concentrations
CCOc1ccc2c(ccc(/C=C/c3ccc4c(C)ccnc4c3O)[n+]2C)c1 [NSC 86372],effect of addition of zinc on inhibition,BoNT/A LC [1],immediately and quantitatively reversed inhibition
same,inhibition at 20 µM,BoNT/A LC [1],51%
same,inhibition of anthrax lethal factor (in words),anthrax lethal factor,inhibit
same,inhibition of BoNT/B LC protease activity (in words),[2],inhibit
Nc1c(/C=C/c2cc3cc(C4=NCCN4)ccc3o2)[nH]c2cc(C3=NCCN3)ccc12 [NSC 357756],inhibition at 20 µM,BoNT/A LC [1],57%
CCOC(=O)[C@H](CCc1ccccc1)N[C@@H](C)C(=O)N1CCC[C@H]1C(=O)O [enalapril],BoNT/A LC inhibition (in words),BoNT/A LC [3],inhibited by mM concentrations
"CCN(CC)CCCC(C)Nc1ccnc2cc(Cl)ccc12 (racemic) [Chloroquine (racemic), Chloroquine]",inhibition at 20 µM,BoNT/A LC [1],20%
"CCN(CC)CCCC(C)Nc1c2ccc(Cl)cc2nc2ccc(OC)cc12 (racemic) [Quinacrine (racemic), Quinacrine]",delay of the time to about 50% muscle paralysis (over control),BoNT/A holotoxin,at least 30%
same,inhibition at 20 µM,BoNT/A LC [1],30%
O=C(O)c1c(I)c(I)c(I)c(I)c1C1c2ccc(O)cc2Oc2cc(O)ccc21 [NSC 119889],inhibition at 20 µM,BoNT/A LC [1],56%
NCCCC[C@H](N[C@@H](CCc1ccccc1)C(=O)O)C(=O)N1CCC[C@H]1C(=O)O [lysinopril],BoNT/A LC inhibition (in words),BoNT/A LC [3],inhibited by mM concentrations
Quinidine,% Inhibition,BoNT/A LC [1],9 3%
[Ag+] [silver ion],effect of addition of DTT on inhibition,BoNT/A LC [1],immediately reversed inhibition
same,effect of zinc in assays on inhibition,BoNT/A LC [1],no effect
same,inhibition of protease activity,BoNT/A LC [1],about 100%
Ic1ccc2nc3cc(Nc4ccc5c(c4)nc4ccc(I)cc4[n+]5-c4ccccc4)ccc3[n+](-c3ccccc3)c2c1 [NSC 402959],inhibition at 20 µM,BoNT/A LC [1],40%
